Source: PMC6941404, “Pigmentosins from Gibellula sp. as antibiofilm agents and a new glycosylated asperfuran from Cordyceps javanica” (Beilstein Journal of Organic Chemistry, 2019)
≈ marks a conversion by molar mass, not a printed value. Like-named read-outs stand apart in the source and are kept apart here. Each block holds one molecule with its values, some of them ahead of it.

How the values were obtained:
[1] = tested on: Pseudomonas aeruginosa PA14; experiment: Anti-biofilm activity, microtiter dish biofilm formation assay; assay type: cell-based; conditions: lowest concentration preventing biofilm formation by at least 50%, 24 h, NA = No activity
Description: (§1) The isolated compounds were also tested for their ability to interfere in the biofilm formation of Staphylococcus aureus DSM1104 and Pseudomonas aeruginosa PA14 [51]. The biofilm inhibition assay was performed in 96-well microtiter plates using the microtiter dish biofilm formation assay described by O’Toole, with minor modifications, as outlined in our recent publications. The antibiofilm activity is expressed as MIC values, which is defined as the lowest concentration of substance that prevents biofilm formation of a target microorganism by at least 50%. […]
(§2) Anti-biofilm activity assay
(§3) The determination of the ability of isolated compounds to prevent biofilm formation of S. aureus DSM1104 (ATCC25923) and P. aeruginosa PA148 was performed using the microtiter dish biofilm formation assay described by O’Toole9 with minor modification provided in our recent publications 1, 6, 10–14. The biofilm forming strains were enriched overnight in CASO medium with and without 4% glucose for S. aureus and P. aeruginosa , respectively. After incubation at 37 °C under shaking condition, the overnight cultures were adjusted to equal the turbidity of 0.5 McFarland standard using the assay medium. The assay was carried out in 96 -well tissue cultured -treated microplates (TPP®, Germany) for S. aureus and non-treated plates (Falcon®MicroTestTM, USA) for P. aeruginosa , in which 10 μ L of each compound (0.5 mg/m L) in six replicates were mixed together with 140 μ L of bacterial suspension. Methanol and CASO medium with and without 4% glucose were used as negative controls and tetracycline (100 μg/m L) as positive control. Plates were covered with a sterile adhesive porous paper (Kisker Biotech GmbH, Steinfurt, Germany) and incubated at 37 °C for 24 h.
(§4) After incubation, ba cterial biofilms were stained with 0.1% crystal violet solution (Sigma -Aldrich) following the protocol of O’Toole .9 Then, the biofilm was subsequently quantified using a microplate reader at 550 nm. 12 In the current study, the antibiofilm activity was expr essed as MIC value which was defined as the lowest concentration of substance that prevents the biofilm formation of a target microorganism by at least 50%. […]

[2] = tested on: Staphylococcus aureus DSM1104; experiment: as above; assay type: cell-based; conditions: S. aureus DSM1104 (ATCC25923); lowest concentration preventing biofilm formation by at least 50%; 24 h; NA = No activity
Description: as §1, §2, §3, §4

[3] = tested on: Caenorhabditis elegans; experiment: Nematicidal activity microwell plate assay; assay type: cell-based; conditions: 18 h, tested 100, 50, 20 and 10 μg/mL, NA = No activity
Description: (§5) To evaluate the biological effects of compounds 1–6, various assays were carried out. The antimicrobial activity of the isolated compounds against Bacillus subtilis DSM10, Escherichia coli DSM498, Candida tenuis MUCL29892, and Mucor plumbeus MUCL49355 was determined as described by Kuephadungphan and co-workers. The nematicidal activity against Caenorhabditis elegans was investigated using a microtiter plate assay according to Helaly and co-workers, while the cytotoxicity was tested against murine fibroblast (L929) and human HeLa (KB3.1) cell lines according to Chepkirui and co-workers.
(§6) Biological activity screening of compounds 1–6 […]
Nematicidal activity assay
The nematicidal activity of the new compounds against C. elegans was performed by a microwell plate assay reported by Stadler et al.5 with slightly modification. The modified protocol was reported by Helaly et al.6 The studied compounds were dissolved with methanol to a concentration of […] and subsequently diluted 1:100 with sterile distilled water. […] Finally, the nematodes were counted using a Malassez counting chamber and further adjusted to obtain a concentration of 500 nematodes/mL with sterile distilled water. […] The plate was incubated at 20 °C in the dark and nematicidal activity was recorded after 18 h of incubation. The nematodes were counted under a stereo microscope. […]

[4] = Cytotoxicity assay (MTT); assay type: cell-based
Description: as §5, §6
The isolated compounds were tested for cytotoxic activity using the MTT (3 -(4,5-dimethylthiayol -2-yl)-2,5-diphenyltetrayolium bromide) method in 96 -well microtiter plates following the procedure previously described by Chepkirui et al.7 against th e cervix carcino ma cell line KB3.1 and the established mouse fibroblast cell line L929. The assay was kindly conducted by Wera Collisi, Department of Microbial Drugs, Helmholtz Centre of Infection Research, Germany. The tested cell lines were cultured in EBM -2 (Lonza) sup plemented with 10% fetal bovine serum (Gibco) under 10% CO2 at 37 °C. A 60 µL of serial dilutions from an initial stock (1 mg/mL) of the test compounds in MeOH was added to 120 µL aliquots of a cell suspension (50,000 cells/mL) in 96-well microplates.
After incubation for five days, 20 µL of MTT in phosphate buffered saline (PBS) were added to give a final concentration of 0.5 mg/mL. The plates were further incubated for two hours. The precipitate […]
of formazan crystals was centrifuged and the supernatant was then discarded. Each well was washed with 100 µL of PBS and 100 µL of isopropanol containing 0.4% hydrochloric acid were subsequently added in order to get the residual dissolved. The plates were gently shaken for 20 min before the absorbance at 590 nm was measured using an ELISA microplate reader (Victor). The concentration, at which the growth of cells was inhibited to 50% of the control (IC50), was obtained from the dose - response curves. Methanol was used as negative control while epothilone A and B wer e used as positive controls for L929 and KB3.1 cell lines, respectively. […]
After incubation at 37 °C under shaking condition, the overnight cultures were adjusted to equal the turbidity of 0.5 McFarland standard using the assay medium. The assay was carried out in 96 -well tissue cultured -treated microplates (TPP®, Germany) for S. aureus and non-treated plates (Falcon®MicroTestTM, USA) for P. aeruginosa , in which 10 μ L of each compound (0.5 mg/m L) in six replicates were mixed together with 140 μ L of bacterial suspension. Methanol and CASO medium with and without 4% glucose were used as negative controls and tetracycline (100 μg/m L) as positive control. Plates were covered with a sterile adhesive porous paper (Kisker Biotech GmbH, Steinfurt, Germany) and incubated at 37 °C for 24 h.
After incubation, ba cterial biofilms were stained with 0.1% crystal violet solution (Sigma -Aldrich) following the protocol of O’Toole .9 Then, the biofilm was subsequently quantified using a microplate reader at 550 nm. […]
aeruginosa PA14 were further evaluated for their bacteriostatic and bactericidal activit ies. The assay was performed in the Bioscreen 100 -well Honeycomb plate according to the protocol described by Yuyama et al. 13 where the MIC values were determined. […]

[5] = tested on: Mucor plumbeus MUCL49355; experiment: Antimicrobial activity, broth microdilution MIC; assay type: cell-based; conditions: Mucor plumbeus MUCL 49355; 48 h; NA = No activity
Description: as §5
(§7) Biological activity screening of compounds 1–6
(§8) Antimicrobial activity assay
(§9) The minimum inhibitory concentration (MIC) of compounds 1–6 was determined using the broth microdilution method according to Kuephadungphan et al.4 against B. subtilis DSM10, E. coli DSM498, C. tenuis MUCL29892 and M. plumbeus MUCL49355. Stock suspension of each bacterium and yeast (100 μL) was transferred to 100 mL of EBS medium and YM medium, respectively.
(§10) Suspensions of B. subtilis and C. tenuis were incubated on a rotary shaker at 30 °C for 18–24 h while E. coli was grown at 37 °C for 24 h. After incubation, the suspension was adjusted to a concentration of 6.7 × 10^5 cells/mL using a hemacytometer. The spore suspension of M. plumbeus was prepared at a concentration of 6.7 × 10^5 conidia/mL using YM medium. The determination of MIC was performed in a 96-well microtiter plate. The compounds dissolved in methanol at a concentration of 4.5 mg/mL (20 μL) were transferred to the first row of the plate. Standard antibiotics including ciprofloxacin (bacteria) and nystatin (yeast and fungus), and methanol were used as positive and negative controls, respectively. Inoculum suspension (280 μL) was added to the first row containing compounds and 150 μL were added to the rest. The solutions were then serially 2-fold diluted to 8 concentrations ranging from 2.34–300 μg/mL. Plates were incubated at 30 °C on a microplate-vibrating shaker for 24 h for bacteria and 48 h for yeast and filamentous fungus. […]
(§11) The assay was kindly conducted by Wera Collisi, Department of Microbial Drugs, Helmholtz Centre of Infection Research, Germany. The tested cell lines were cultured in EBM -2 (Lonza) sup plemented with 10% fetal bovine serum (Gibco) under 10% CO2 at 37 °C. A 60 µL of serial dilutions from an initial stock (1 mg/mL) of the test compounds in MeOH was added to 120 µL aliquots of a cell suspension (50,000 cells/mL) in 96-well microplates.
(§12) After incubation for five days, 20 µL of MTT in phosphate buffered saline (PBS) were added to give a final concentration of 0.5 mg/mL. The plates were further incubated for two hours. The precipitate

[6] = tested on: Candida tenuis MUCL29892; experiment: Antimicrobial activity, broth microdilution MIC; assay type: cell-based; conditions: Candida tenuis MUCL 29892; 48 h; NA = No activity
Description: as §5, §7, §8, §9, §10, §11, §12

[7] = design: method as in PMID 2143181; conditions: cited from earlier work
[8] = tested on: Bacillus subtilis DSM10; experiment: Antimicrobial activity, broth microdilution MIC; assay type: cell-based; conditions: Bacillus subtilis DSM10, 24 h, range 2.34–300 μg/mL, NA = No activity
Description: as §5, §7, §8, §9, §10, §11, §12

[9] = tested on: Escherichia coli DSM498; experiment: Antimicrobial activity, broth microdilution MIC; assay type: cell-based; conditions: 24 h, NA = No activity
Description: as §5, §7, §8, §9, §10, §11, §12

Molecule: CN(C)[C@@H]1C(O)=C(C(N)=O)C(=O)[C@@]2(O)C(O)=C3C(=O)c4c(O)cccc4[C@@](C)(O)[C@H]3C[C@@H]12 [Tetracycline, tetracycline, reference compound]
Anti-biofilm activity (MIC) PA [1]: 1.9 µg/mL
Anti-biofilm activity (MIC) SA [2]: 1.9 µg/mL

Molecule: ivermectin [reference compound]
Nematicidal CE [3]: 7.5 µg/mL

Anti-biofilm activity (MIC) SA [2]: 250 µg/mL
Molecule: CCCC[C@H](C)[C@@H]1CC(=O)N[C@@H](Cc2ccc(O)cc2)C(=O)N[C@@H](C)C(=O)N[C@H](CC(C)C)C(=O)O1 [Beauverolide N (4), beauverolide N]
IC50 at 5 days ([4]; human, KB3.1 cells (HeLa, cervix carcinoma cell line), HeLa cell line KB3.1, MTT, five days, NA = No activity, a = Proliferation inhibition, no altered or dead cells, read-out: Cytotoxicity (IC50) KB3.1): 16 µg/mL (≈ 31.8 µM)

Molecule: C[C@@H]1[C@H](O)[C@@H](C)/C=C/C=C/CC/C=C/C=C/C=C/C=C/C(O[C@H]2O[C@H](C)[C@@H](O)[C@H](N)[C@@H]2O)CC2O[C@](O)(CC(O)C(O)CCC(O)CC(O)CC(O)CC(=O)O[C@H]1C)CC(O)C2C(=O)O (some centres unmarked) [Nystatin, nystatin, reference compound]
Antimicrobial activity (MIC) MP [5]: 8.33 µg/mL
Antimicrobial activity (MIC) CT [6]: 0.52 µg/mL

Molecule: C/C=C/C=C/[C@H]1Cc2cc(O)cc(O)c2O1 [asperfuran]
Antifungal activity [7]: moderately antifungal

Molecule: C/C(=C\c1csc(C)n1)[C@@H]1C[C@@H]2O[C@@H]2CCC[C@H](C)[C@H](O)[C@@H](C)C(=O)C(C)(C)[C@@H](O)CC(=O)O1 [Epothilone A, epothilone A]
IC50 at 5 days ([4]; mouse, Murine fibroblast cell line L929, five days, NA = No activity): 0.0038 µg/mL (≈ 0.0077 µM)

Molecule: C/C(=C\c1csc(C)n1)[C@@H]1C[C@@H]2O[C@]2(C)CCC[C@H](C)[C@H](O)[C@@H](C)C(=O)C(C)(C)[C@@H](O)CC(=O)O1 [Epothilone B, epothilone B, reference compound]
IC50 at 5 days ([4]; human, HeLa cell line KB3.1, MTT, five days, NA = No activity, a = Proliferation inhibition, no altered or dead cells, read-out: Cytotoxicity (IC50) KB3.1): 0.00022 µg/mL (≈ 0.000433 µM)

Molecule: CCCC[C@H](C)[C@@H]1CC(=O)N[C@@H](Cc2ccccc2)C(=O)N[C@@H](C)C(=O)N[C@H](CC(C)C)C(=O)O1 [Beauverolide I (5), beauverolide I]
IC50 at 5 days ([4]; human): 20 µg/mL (≈ 41 µM)

MIC ([8]; read-out: Antimicrobial activity (MIC) BS): 0.52 µg/mL (≈ 1.57 µM)
MIC ([9]; read-out: Antimicrobial activity (MIC) EC): 0.52 µg/mL (≈ 1.57 µM)
Molecule: O=C(O)c1cn(C2CC2)c2cc(N3CCNCC3)c(F)cc2c1=O [Ciprofloxacin, ciprofloxacin, reference compound]

Antimicrobial activity (MIC) BS [8]: devoid of activity
Antimicrobial activity (MIC) MP [5]: devoid of activity
Antimicrobial activity (MIC) CT [6]: devoid of activity
Antimicrobial activity (MIC) EC [9]: devoid of activity
Molecule: CC=CC=CC1Cc2cc(OC3OC(CO)C(OC)C(O)C3O)cc(O)c2O1 (centres unmarked) [Glucoasperfuran (3), glycoasperfuran]
